Reference: patent publication US6828320B2, “Heterocyclic compounds” (SmithKline Beecham Corporation, priority 1996, dated 2004)
pIC50: −log10 of the molar value. Counter-ions that a name gives are not always drawn. Like-named read-outs stand apart in the source and are kept apart here.

Legend:
[1] = target: T1, c-erbB-2 (baculovirus expressed, recombinant intracellular domain) (Homo sapiens, UniProt P04626); assay: Substrate phosphorylation assay, c-erbB-2; assay type: biochemical
T1 construct: baculovirus expressed, recombinant constructs of the intracellular domains of c-erbB-2 and c-erbB-4; made in house
T1 sequence (P04626 676-1255 limits assumed): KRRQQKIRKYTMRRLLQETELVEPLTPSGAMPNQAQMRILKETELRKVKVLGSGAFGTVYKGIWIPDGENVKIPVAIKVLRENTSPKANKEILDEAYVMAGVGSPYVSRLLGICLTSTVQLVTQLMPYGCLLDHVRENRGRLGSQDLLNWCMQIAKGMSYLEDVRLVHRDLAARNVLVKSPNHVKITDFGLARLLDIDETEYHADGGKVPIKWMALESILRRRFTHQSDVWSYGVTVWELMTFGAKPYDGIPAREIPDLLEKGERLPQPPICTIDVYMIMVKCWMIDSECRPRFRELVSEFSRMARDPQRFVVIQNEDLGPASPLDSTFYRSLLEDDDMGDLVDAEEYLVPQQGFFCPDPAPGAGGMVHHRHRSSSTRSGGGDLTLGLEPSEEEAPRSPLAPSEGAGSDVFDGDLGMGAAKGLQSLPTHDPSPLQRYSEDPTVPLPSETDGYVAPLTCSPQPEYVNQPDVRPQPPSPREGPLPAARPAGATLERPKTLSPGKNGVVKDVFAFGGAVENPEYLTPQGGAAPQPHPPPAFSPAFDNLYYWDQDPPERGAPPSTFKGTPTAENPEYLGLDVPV
Description: (§1) The substrate phosphorylation assays use baculovirus expressed, recombinant constructs of the intracellular domains of c-erbB-2 and c-erbB-4 that are constitutively active and EGFr isolated from solubilised A431 cell membranes. The method measures the ability of the isolated enzymes to catalyse the transfer of the γ-phosphate from ATP onto tyrosine residues in a biotinylated synthetic peptide (Biotin-[…]. […] The reaction is stopped by the addition of EDTA (final concentration 0.15 mM) and a sample is transferred to a streptavidin-coated 96-well plate. The plate is washed and level of phosphotyrosine on the peptide is determined using a Europium-labelled antiphosphotyrosine antibody and quantified with a time-resolved fluorescence technique.

[2] = target: T2, c-erbB-4 (baculovirus expressed, recombinant intracellular domain) (Homo sapiens, UniProt Q15303); assay: Substrate phosphorylation assay, c-erbB-4; assay type: biochemical
T2 construct: baculovirus expressed, recombinant constructs of the intracellular domains of c-erbB-2 and c-erbB-4; made in house
T2 sequence (Q15303 676-1308 limits assumed): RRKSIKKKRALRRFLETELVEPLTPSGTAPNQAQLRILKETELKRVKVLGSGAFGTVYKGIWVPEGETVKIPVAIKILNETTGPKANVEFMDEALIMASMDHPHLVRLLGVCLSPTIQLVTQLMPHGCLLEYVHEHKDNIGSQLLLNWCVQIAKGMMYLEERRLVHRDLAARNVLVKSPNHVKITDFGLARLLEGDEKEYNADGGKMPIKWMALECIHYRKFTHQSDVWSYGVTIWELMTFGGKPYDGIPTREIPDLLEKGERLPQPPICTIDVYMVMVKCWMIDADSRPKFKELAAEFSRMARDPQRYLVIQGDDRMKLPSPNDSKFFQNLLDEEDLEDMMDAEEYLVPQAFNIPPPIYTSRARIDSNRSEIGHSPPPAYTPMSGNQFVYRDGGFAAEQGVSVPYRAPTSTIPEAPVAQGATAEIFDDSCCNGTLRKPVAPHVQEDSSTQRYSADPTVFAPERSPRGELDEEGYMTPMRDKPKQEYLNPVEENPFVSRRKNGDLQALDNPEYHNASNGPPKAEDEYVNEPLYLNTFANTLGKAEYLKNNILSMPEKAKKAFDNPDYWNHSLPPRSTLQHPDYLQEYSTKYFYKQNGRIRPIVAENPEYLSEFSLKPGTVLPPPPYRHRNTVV
Description: as §1

[3] = target: HB4a cell line transformed by over-expression of c-erbB-2 (Homo sapiens, UniProt P04626); assay: Cell proliferation assay, HB4a erbB-2; assay type: cell-based
Chain of HB4a cell line transformed by over-expression of c-erbB-2 (P04626 whole entry, stated change not applied): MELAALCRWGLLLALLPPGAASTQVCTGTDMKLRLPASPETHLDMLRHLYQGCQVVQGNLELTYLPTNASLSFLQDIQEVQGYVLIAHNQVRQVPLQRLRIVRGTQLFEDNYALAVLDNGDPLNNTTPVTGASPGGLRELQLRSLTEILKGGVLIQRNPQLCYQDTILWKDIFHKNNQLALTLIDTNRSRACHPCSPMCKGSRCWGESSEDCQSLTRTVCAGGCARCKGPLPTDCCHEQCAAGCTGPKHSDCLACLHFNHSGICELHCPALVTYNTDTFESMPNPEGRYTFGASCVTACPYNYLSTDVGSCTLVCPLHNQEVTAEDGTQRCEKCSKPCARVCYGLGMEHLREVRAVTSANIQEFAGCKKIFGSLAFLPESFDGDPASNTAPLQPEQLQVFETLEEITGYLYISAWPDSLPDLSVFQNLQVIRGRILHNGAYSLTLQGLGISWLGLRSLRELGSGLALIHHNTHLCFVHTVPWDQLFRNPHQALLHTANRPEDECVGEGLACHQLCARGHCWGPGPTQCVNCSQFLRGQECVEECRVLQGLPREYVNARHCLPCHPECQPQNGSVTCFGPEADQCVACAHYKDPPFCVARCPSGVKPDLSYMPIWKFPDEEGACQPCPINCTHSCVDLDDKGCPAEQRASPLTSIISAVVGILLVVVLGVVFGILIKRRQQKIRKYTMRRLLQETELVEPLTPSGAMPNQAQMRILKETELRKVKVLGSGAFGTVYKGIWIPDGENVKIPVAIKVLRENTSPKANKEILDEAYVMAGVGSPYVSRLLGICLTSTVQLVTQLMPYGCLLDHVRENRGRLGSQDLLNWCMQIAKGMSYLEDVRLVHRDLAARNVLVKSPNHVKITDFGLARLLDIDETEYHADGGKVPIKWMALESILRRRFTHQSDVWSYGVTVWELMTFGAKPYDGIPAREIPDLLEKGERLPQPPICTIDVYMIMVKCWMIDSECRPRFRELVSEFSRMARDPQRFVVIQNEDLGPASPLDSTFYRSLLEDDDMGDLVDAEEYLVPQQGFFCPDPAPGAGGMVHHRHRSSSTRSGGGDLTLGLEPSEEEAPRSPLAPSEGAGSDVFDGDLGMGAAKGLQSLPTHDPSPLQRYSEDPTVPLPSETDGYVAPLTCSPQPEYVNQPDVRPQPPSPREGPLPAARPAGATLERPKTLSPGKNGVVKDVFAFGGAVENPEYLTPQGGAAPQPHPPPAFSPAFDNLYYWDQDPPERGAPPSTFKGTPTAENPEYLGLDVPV
Description: The cell proliferation assay uses an immortalised human breast epithelial cell line (HB4a) which has been transformed by over-expression of c-erbB-2. Growth of these cells in low serum is dependent upon the c-erbB-2 tyrosine kinase activity. […] Cells are plated at 3000/ well in 96-well plates in 0.1 ml medium and allowed to attach overnight. test compound is added in 0.1 ml medium, with a final concentration of 0.5% DMSO, and the plates incubated for 4 days at 37° C. The cells are then examined microscopically for evidence of morphological detransformation and cell mass is estimated by staining with methylene blue and measuring the absorbance at 620 nm. […] Activity against a range of naturally occurring EGFr or c-erbB-2 over-expressing human tumour cell lines (BT474-breast, HN5-head and neck, N87-gastric and Calu3-lung) is assessed with selected compounds by the same methodology.

[4] = tested on: HB4a cell line transfected with ras; assay: Cell proliferation assay, HB4a ras; assay type: cell-based, human; details: Homo sapiens, HB4a, 96 h, read-out: Cell Proliferation HB4a ras
[5] = read-out: Substrate Phosphorylation erbB-2
[6] = 4 days at 37° C., methylene blue staining; read-out: Cell Proliferation HB4a erbB-2
[7] = 4 days at 37° C., methylene blue staining, general toxicity control

Compound: c1ccc(COc2ccc(Nc3ncnc4ccc(-c5ccco5)cc34)cc2)cc1 [Example 1, (4-Benzyloxy-phenyl)-(6-furan-2-yl-quinazolin-4-yl)-amine]
- pIC50 [1, 5]: 7.40
- pIC50 [2]: 5.60

Compound: c1ccc(COc2ccc(Nc3ncnc4ccc(-c5ccccn5)cc34)cc2)cc1 [Example 3, (4-Benzyloxy-phenyl)-(6-(pyridin-2-yl)-quinazolin-4-yl)-amine]
- GI50 [3, 6]: 23000 nM
- pIC50 [1, 5]: 7.54
- pIC50 [4, 7]: 4.80
- pIC50 [2]: 5.07

Compound: c1ccc(COc2ccc(Nc3ncnc4ccc(-c5ncccn5)cc34)cc2)cc1 [Example 4, (4-Benzyloxy-phenyl)-(6-(pyrimidin-2-yl)-quinazolin-4-yl)-amine]
- pIC50 [1, 5]: 7.46
- pIC50 [4, 7]: 4.30
- pIC50 [2]: 5.19

Compound: Cn1nncc1-c1ccc2ncnc(Nc3ccc(OCc4ccccc4)cc3)c2c1 [Example 8, (4-Benzyloxy-phenyl)-(6-(3-methyl-1,2,3-triazol-4-yl)-quinazolin-4-yl)-amine]
- pIC50 [1, 5]: 6.82
- pIC50 [2]: < 5.00

Compound: O=Cc1ccc(-c2ccc3ncnc(Nc4ccc(OCc5ccccc5)cc4)c3c2)o1 [Example 9, 5-(4-(4-Benzyloxy-phenylamino)-quinazolin-6-yl)-furan-2-carbaldehyde]
- GI50 [3, 6]: 550 nM
- pIC50 [1, 5]: 7.62
- pIC50 [4, 7]: 5.24
- pIC50 [2]: 6.37

Compound: c1ccc(COc2ccc(Nc3ncnc4ccc(-c5nnn[nH]5)cc34)cc2)cc1 [Example 40, (4-Benzyloxy-phenyl)-(6-(1H-tetrazol-5-yl)-quinazolin-4-yl)-amine]
- GI50 [3, 6]: > 50000 nM
- pIC50 [1, 5]: 8.52
- pIC50 [4, 7]: < 4.30
- pIC50 [2]: 6.01

Compound: Cc1nnc(-c2ccc3ncnc(Nc4ccc5c(cnn5Cc5ccccc5)c4)c3c2)[nH]1 [Example 42, (1-Benzyl-1H-indazol-5-yl)-(6-(5-methyl-1,3,4-triazol-2-yl)-quinazolin-4-yl)-amine]
- GI50 [3, 6]: 570 nM
- pIC50 [1, 5]: 8.15
- pIC50 [4, 7]: 4.70

Compound: Cc1cc(-c2ccc3ncnc(Nc4ccc(OCc5ccccc5)cc4)c3c2)on1 [Example 47, (4-Benzyloxy-phenyl)-(-6-(3-methylisoxazol-5-yl)-quinazolin-4-yl)-amine hydrochloride]
- pIC50 [1, 5]: 6.31
- pIC50 [2]: 5.30

Compound: CN(CCS(C)(=O)=O)Cc1ccc(-c2ccc3ncnc(Nc4ccc(OCc5ccccc5)cc4)c3c2)o1 [Example 48, (4-Benzyloxy-phenyl)-(6-(5-(((2-methanesulphonyl-ethyl)-methyl-amino)-methyl)-furan-2-yl)-quinazolin-4-yl)-amine]
- GI50 [3, 6]: 80 nM
- pIC50 [1, 5]: 7.42
- pIC50 [4, 7]: 5.02
- pIC50 [2]: 5.96

Compound: CS(=O)(=O)NCCNCc1ccc(-c2ccc3ncnc(Nc4ccc(OCc5ccccc5)cc4)c3c2)o1 [Example 49, N-(2-((5-(4-(4-Benzyloxy-phenylamino)-quinazolin-6-yl)-furan-2-ylmethyl)-amino) -ethyl)-methanesulphonamide dihydrochloride]
- GI50 ([3]; read-out: Cell Proliferation HB4a erbB-2; 4 days at 37° C., methylene blue staining): 470 nM
- pIC50 [1]: 7.48
- pIC50 [4]: 5.46

Compound: NS(=O)(=O)CCNCc1ccc(-c2ccc3ncnc(Nc4ccc(OCc5ccccc5)cc4)c3c2)o1 [Example 50, 2-((5-(4-(4-Benzyloxy-phenylamino)-quinazolin-6-yl)-furan-2-ylmethyl)-amino)-ethanesulphonic acid amide]
- GI50 [3, 6]: 860 nM
- pIC50 [1, 5]: 7.92
- pIC50 [4, 7]: 5.15
- pIC50 [2]: 7.00

Compound: CN(C)CCc1nc(-c2ccc3ncnc(Nc4ccc(OCc5ccccc5)cc4)c3c2)no1 [Example 57, (4-Benzyloxy-phenyl)-(6-(5-(2-dimethylamino-ethyl)-1,2,4-oxadiazol-3-yl)-quinazolin-4-yl)-amine]
- GI50 [3, 6]: 1200 nM
- pIC50 [1, 5]: 7.08
- pIC50 [4, 7]: 5.57

Compound: CN(C)Cc1nc(-c2ccc3ncnc(Nc4ccc(OCc5ccccc5)cc4)c3c2)no1 [Example 58, (4-Benzyloxy-phenyl)-(6-(5-(dimethylaminomethyl)-1,2,4-oxadiazol-3-yl)-quinazolin-4-yl)-amine]
- GI50 [3, 6]: 8600 nM
- pIC50 [1, 5]: 8.22
- pIC50 [4, 7]: 4.55
